Test results taken from patent publication EP2423181A1, “Multitarget substituted biphenyl diol derivatives” (PROUS INSTITUTE FOR BIOMEDICAL RESEARCH S.A., priority 2010, dated 2012).
Structures can show the parent of a compound that is named as a salt. Where two headings read alike, the source gives them in different places.

Key:
mice [1] = details: formalin test, active dose of external active reference, cited from earlier work; for Dose (mg / Kg) Early Response: p.o.; for Dose (mg / Kg) Late Response: route not given
COX-2 = molecular target: T1, COX-2 (Homo sapiens, UniProt P35354); test: COX-2 inhibition (PGE2 enzyme immunoassay); type: biochemical; details: read-out: % COX-2 inhibition
T1 construct: host or cells: Sf21 insect cells
T1 sequence (P35354 18-604): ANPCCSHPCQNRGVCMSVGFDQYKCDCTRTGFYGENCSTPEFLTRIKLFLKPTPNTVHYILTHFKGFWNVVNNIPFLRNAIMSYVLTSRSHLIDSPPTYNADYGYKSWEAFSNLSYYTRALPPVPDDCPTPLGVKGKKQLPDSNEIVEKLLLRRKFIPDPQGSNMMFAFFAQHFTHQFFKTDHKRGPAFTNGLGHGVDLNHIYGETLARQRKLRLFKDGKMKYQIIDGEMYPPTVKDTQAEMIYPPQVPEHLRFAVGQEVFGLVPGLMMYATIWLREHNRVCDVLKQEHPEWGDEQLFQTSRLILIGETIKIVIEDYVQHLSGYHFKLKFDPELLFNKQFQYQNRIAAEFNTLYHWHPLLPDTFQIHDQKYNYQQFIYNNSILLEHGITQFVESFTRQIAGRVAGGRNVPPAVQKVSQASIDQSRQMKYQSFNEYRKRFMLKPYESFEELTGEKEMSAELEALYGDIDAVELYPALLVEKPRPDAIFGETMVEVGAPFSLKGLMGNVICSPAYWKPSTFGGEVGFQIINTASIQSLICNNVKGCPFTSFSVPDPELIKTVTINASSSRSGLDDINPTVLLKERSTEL
Method: (§1) The COX-1 inhibitory activity of representative compounds of the invention was determined according to previously reported methods. COX-1 activity was assessed in human platelets using 100 µM arachidonic acid as a substrate and preincubation and incubation times of 15 min at 37 °C in HBSS, 15 mM HEPES pH 7.4 . The quantification method used was enzyme immunoassay determination of PGE2 (Chan, C.C. et al. J Pharmacol Exp Ther, 1999, 290, 551-560; Swinney, D.C. et al. J Biol Chem, 1997, 272, 12393-12398; Warner, T.D. et al. Proc Natl Acad Sci U S A, 1999, 96, 7563-7568; Riendeau, D. et al. Can J Physiol Pharmacol, 1997, 75, 1088-1095). COX-2 inhibitory activity was determined in human recombinant insect Sf21 cells according to references (Warner, T.D. et al., Proc Natl Acad Sci, USA. 1999;96(13):7563-7568; Riendeau, D. et al., Can J Physiol Pharmacol, 1997 ;75(9):1088-1095). Briefly, the COX-2 inhibitory activity was assessed on human recombinant insect Sf21 cells using 0.3 µM arachidonic acid as a substrate and preincubation and incubation times of 15 and 5 min, respectively, at 37 °C in 100 mM Tris-HCl, pH 7.7. The quantification method used was enzyme immunoassay determination of PGE2. Table 11. Inhibition of COX-1 and COX-2 at 10 µM

5-LO = molecular target: T2, 5-LO (Homo sapiens, UniProt P09917); test: 5-Lipoxygenase inhibition (LTB4 enzyme immunoassay); type: biochemical
T2 construct: host or cells: Sf9 insect cells
T2 sequence (P09917 1-674): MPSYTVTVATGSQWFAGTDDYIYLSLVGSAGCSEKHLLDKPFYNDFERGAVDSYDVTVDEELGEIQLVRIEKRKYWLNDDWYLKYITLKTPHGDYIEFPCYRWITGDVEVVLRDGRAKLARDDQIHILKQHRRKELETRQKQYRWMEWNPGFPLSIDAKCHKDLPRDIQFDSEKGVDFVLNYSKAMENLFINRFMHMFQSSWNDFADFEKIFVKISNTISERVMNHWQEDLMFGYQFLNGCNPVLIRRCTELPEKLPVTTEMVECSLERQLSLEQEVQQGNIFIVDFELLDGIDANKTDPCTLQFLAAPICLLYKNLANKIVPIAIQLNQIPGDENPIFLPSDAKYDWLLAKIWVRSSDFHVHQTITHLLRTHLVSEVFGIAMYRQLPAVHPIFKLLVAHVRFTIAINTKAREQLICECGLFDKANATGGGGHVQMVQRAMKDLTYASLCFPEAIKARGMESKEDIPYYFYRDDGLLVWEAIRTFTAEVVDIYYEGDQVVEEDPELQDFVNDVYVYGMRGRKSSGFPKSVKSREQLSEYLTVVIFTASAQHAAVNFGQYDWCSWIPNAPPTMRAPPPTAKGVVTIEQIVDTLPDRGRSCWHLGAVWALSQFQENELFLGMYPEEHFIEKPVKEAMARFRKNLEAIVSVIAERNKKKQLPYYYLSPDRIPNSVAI
Method: The 5-LO-inhibitory activity of compounds of the invention was determined using previously reported assays. Briefly, lipoxygenase activity was evaluated in human recombinant insect Sf9 cells using 3µM arachidonic acid as a substrate with a preincubation and incubation times of 15 and 5 min respectively at 25°C in a 50 mM Tris-HCl, pH 7.4, 2 mM CaCl2, 1 mM ATP. The quantification method used was enzyme immunoassay determination of LTB4 and the significance criteria were established with a response equal or different of the maximum stimulation or inhibition (Noguchi, M. et al., Eur J Biochem, 1994, 222(2), 285-292; Percival, M.D. et al., Eur J Biochem, 1992, 210(1), 109-117).

COX-1 = molecular target: T3, COX-1 (Homo sapiens, UniProt P23219); test: COX-1 inhibition in human platelets (PGE2 enzyme immunoassay); type: biochemical; details: read-out: % COX-1 Inhibition
T3 construct: endogenous in cells; host or cells: human platelets
Method: as §1

[2] = Maximum Tolerated Dose after acute administration; details: mouse, in vivo, po, mice
Method: The Maximum Tolerated Dose (MTD) in mice was determined for selected compounds. The protocol of the studies was in accordance with the standard guidelines for drug development: • (htp://dtp.nci.nih.gov/branches/btb/acute tox.html). Table 10. Maximum Tolerated Doses in mice after acute i.p. administration

tumor melanoma B16-FO = test: Tumor cell proliferation assay (alamarBlue); type: cell-based, murine; details: Mus musculus
Method: (§2) Changes in cell proliferation were detected based on the ability of viable cells to cause alamarBlue® to change its oxidized (non-fluorescent, blue) to a reduced (fluorescent, red) form. The alamarBlue® reaction allows the quantification of cell proliferation and examination of the metabolic activity of viable cells. Test substances were examined for activity on the proliferation of human or murine tumor cell lines at assay concentrations from 0.01 to 100 µM.

[3] = log D octanol/water distribution coefficient; type: physicochemical
Excerpt: Lipophilicity has been correlated to various drug properties, affecting permeability, absorption, distribution, plasma protein binding, metabolism, elimination, and toxicity. In contrast to honokiol and magnolol, compounds claimed in the invention, and more particularly those wherein the nitrogen atom in the group -O-CH(phenyl)-(CH2)p-NH-R^3 is protonated and the compound further comprises a pharmaceutically acceptable counter-anion present an optimal log Doctanol/water (range 0-3), indicating good aqueous solubility, permeability, oral absorption, and blood-brain barrier penetration. Experimental studies in murine models have confirmed the results.
Absorption, distribution and metabolism studies in vitro with selected examples were performed in order to determine pharmacokinetic parameters such as permeability (or absorption constant), intrinsic clearance (or metabolic clearance), and bioavailability. Physicochemical properties such as water solubility, pKa, log P, and log Doctanol/water, and in vitro experimental studies such as permeability in Caco2 cells, and protein binding in the mouse, stability in murine microsomes, chemical stability at different pH and stability in plasma were evaluated for the pharmacokinetic prediction in mice.

EGFR = molecular target: T4, EGFR (Homo sapiens, UniProt P00533); test: EGF receptor tyrosine-protein kinase inhibition (ELISA of Poly[Glu:Tyr-P]); type: biochemical
T4 construct: EGF receptor tyrosin-protein kinase activity was assessed in human A431 cells; endogenous in cells; host or cells: human A431 cells
Method: EGF receptor tyrosin-protein kinase activity was assessed in human A431 cells using as a substrate Poly(Glu:Tyr) at 10 µg/ml with a preincubation and incubation times of 15 and 60 min, respectively, at 25°C respectively in 50 mM HEPES pH 7.4, 20 mM MgCl2 and 0.2 mM Na3VO4. An ELISA quantification method of Poly[Glu:Tyr-P] was employed (Cheng, K. and Koland, J.G. J Biol Chem, 1996, 271, 311-318). Table 5. Inhibition of EGFR at 10 µM

tumor leukaemia K562 = test: Tumor cell proliferation assay (alamarBlue); type: cell-based; details: Homo sapiens, K562
Method: as §2

tumor lung A549 = test: Tumor cell proliferation assay (alamarBlue); type: cell-based; details: Homo sapiens, A549
Method: as §2

tumor ovary OVCAR-3 = test: Tumor cell proliferation assay (alamarBlue); type: cell-based; details: Homo sapiens, OVCAR-3
Method: as §2

tumor liver HepG2 = test: Tumor cell proliferation assay (alamarBlue); type: cell-based; details: Homo sapiens, HepG2
Method: as §2

tumor colon HCT-116 = test: Tumor cell proliferation assay (alamarBlue); type: cell-based; details: Homo sapiens, HCT-116
Method: as §2

tumor prostate LNCaP-FGC = test: Tumor cell proliferation assay (alamarBlue); type: cell-based; details: Homo sapiens
Method: as §2

tumor brain U-87 MG = test: Tumor cell proliferation assay (alamarBlue); type: cell-based; details: Homo sapiens, U-87 MG
Method: as §2

mice [4] = test: Formalin test (antinociceptive activity); type: in vivo; details: formalin test, dose 10 mg/Kg i.p.
Method: The chemical irritant formalin test is used as a chronic pain model in animals. The s.c. administration of formalin to the paw of a mouse produces a biphasic nociceptive behavioral response, an early response (0-5 min after injection) and a late response (20-30 min after injection) (Hunskaar, S., Fasmer, O.B., Hole, K. Formalin test in mice, a useful technique for evaluating mild analgesics. J Neurosci Methods, 1985 ;14(1):69-76).
Aspirine and paracetamol are included as external active references in early and late response. Table 12. Early and late response inhibition in the formalin test.

[5] = 5-LO, at 10 µM, read-out: % Inhibition

T3 sequence (P23219 24-599): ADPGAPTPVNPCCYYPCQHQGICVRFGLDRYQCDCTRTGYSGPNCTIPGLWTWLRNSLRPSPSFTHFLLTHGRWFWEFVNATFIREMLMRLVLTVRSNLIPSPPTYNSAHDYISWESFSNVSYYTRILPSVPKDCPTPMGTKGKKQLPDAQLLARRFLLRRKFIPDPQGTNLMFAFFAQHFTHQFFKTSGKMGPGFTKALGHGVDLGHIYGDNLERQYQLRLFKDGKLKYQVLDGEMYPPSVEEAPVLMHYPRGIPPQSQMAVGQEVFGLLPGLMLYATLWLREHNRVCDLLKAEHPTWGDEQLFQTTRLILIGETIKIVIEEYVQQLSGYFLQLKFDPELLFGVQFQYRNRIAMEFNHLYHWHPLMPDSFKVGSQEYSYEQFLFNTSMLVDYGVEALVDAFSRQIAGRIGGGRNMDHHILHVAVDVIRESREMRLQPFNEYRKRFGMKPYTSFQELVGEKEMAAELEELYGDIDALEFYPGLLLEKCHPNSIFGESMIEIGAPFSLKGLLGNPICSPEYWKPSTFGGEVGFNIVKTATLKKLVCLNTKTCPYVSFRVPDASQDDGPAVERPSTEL
T4 sequence (P00533 25-1210): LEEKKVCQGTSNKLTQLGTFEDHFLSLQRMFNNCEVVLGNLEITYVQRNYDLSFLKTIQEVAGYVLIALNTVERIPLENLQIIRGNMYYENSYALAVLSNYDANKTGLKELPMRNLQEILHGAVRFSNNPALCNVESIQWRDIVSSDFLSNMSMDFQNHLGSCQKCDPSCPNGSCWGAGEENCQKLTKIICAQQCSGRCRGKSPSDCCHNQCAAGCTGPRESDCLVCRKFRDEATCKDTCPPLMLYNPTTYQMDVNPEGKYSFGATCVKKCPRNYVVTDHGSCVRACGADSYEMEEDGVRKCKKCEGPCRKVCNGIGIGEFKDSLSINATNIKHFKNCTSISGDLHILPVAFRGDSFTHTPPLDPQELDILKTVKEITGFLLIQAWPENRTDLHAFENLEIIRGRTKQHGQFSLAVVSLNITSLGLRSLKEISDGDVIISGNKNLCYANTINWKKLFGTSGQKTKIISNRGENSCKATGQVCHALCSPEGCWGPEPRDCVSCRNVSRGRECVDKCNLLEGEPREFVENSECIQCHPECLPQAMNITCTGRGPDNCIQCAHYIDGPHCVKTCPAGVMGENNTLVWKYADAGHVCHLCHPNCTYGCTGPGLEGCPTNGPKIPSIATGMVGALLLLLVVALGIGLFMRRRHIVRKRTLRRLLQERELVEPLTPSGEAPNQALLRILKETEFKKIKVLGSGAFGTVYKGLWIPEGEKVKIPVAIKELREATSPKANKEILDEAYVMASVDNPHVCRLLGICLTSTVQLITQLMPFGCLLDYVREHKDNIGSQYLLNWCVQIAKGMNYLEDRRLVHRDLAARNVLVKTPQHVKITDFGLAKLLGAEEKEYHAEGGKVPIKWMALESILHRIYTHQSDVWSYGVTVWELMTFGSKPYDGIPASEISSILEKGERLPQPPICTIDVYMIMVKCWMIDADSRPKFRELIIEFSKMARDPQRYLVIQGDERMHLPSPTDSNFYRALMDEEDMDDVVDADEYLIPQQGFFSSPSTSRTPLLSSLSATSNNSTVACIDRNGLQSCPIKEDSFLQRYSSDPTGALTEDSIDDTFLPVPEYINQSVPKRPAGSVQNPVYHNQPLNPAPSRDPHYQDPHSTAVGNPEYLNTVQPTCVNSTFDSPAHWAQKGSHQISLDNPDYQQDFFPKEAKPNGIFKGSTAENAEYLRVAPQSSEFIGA

In the case of `CC(=O)Oc1ccccc1C(=O)O` [Aspirin], the “Dose (mg / Kg) Early Response” value (mice [1]) is given as 200-400 p.o. mg / Kg and the “Dose (mg / Kg) Late Response” value (mice [1]) is given as 300 to 400 mg/kg.

`C=CCc1ccc(OC(CCNC)c2ccccc2)c(-c2ccc(O)c(CC=C)c2)c1.Cl` (stereo not drawn) [Example 4, 3,5'-Diallyl-2'-[3-(methylamino)-1-phenylpropoxy]biphenyl-4-ol hydrochloride] gave an inhibition at 10 µM (COX-2; at 10 µM) of 0%, an inhibition at 10 µM (5-LO; [5]) of 100% and an inhibition at 10 µM (COX-1; at 10 µM, human platelets) of 81%. It also gave an MTD [2] of 30 mg/kg.

Work on `CCCc1ccc(O)c(-c2ccc(OC(CCNC)c3ccccc3)c(CCC)c2)c1` (stereo not drawn) [Example 6, 4'-[3-(Methylamino)-1-phenylpropoxy]-3',5-dipropylbiphenyl-2-ol hydrochloride] yielded an inhibition at 10 µM (5-LO; [5]) of 100%.

With `C=CCc1ccc(O)c(-c2cc(CC=C)ccc2O)c1` [Magnolol, reference compound] the IC50 (tumor melanoma B16-FO) was 28 µM, the inhibition at 10 µM (COX-2) was 95% and the logDoctanol/water [3] was 5.25. It also gave an inhibition at 10 µM (EGFR) of -26%, an inhibition at 10 µM (5-LO) of 67% and an IC50 (tumor leukaemia K562) of 48 µM. For the same molecule, the IC50 (tumor lung A549) was 19 µM, the IC50 (tumor ovary OVCAR-3) was 23 µM and the IC50 (tumor liver HepG2) was 12 µM. For the same molecule, the IC50 (tumor colon HCT-116) was 17 µM, the IC50 (tumor prostate LNCaP-FGC) was 5.1 µM and the IC50 (tumor brain U-87 MG) was 48 µM. The inhibition at 10 µM (COX-1) was 21%.

In the case of `CN1CC[C@]23c4c5ccc(O)c4O[C@H]2[C@@H](O)C=C[C@H]3[C@H]1C5` [Morphine, reference compound], the “Early Response” value (mice [4]; early response 0-5 min) is reported as “active” and the “Late Response” value (mice [4]; late response 20-30 min) is reported as “active”.

For `CC(=O)Nc1ccc(O)cc1` [Paracetamol], the “Dose (mg / Kg) Early Response” value (mice [1]) is listed as 200-400 p.o. mg / Kg and the “Dose (mg / Kg) Late Response” value (mice [1]) is listed as 300 to 400 mg/kg.
